What was measured:
[1] = plasma protein binding, mouse; format: in vitro ADME
Protocol: (§1) Supplement DataSheet_1.docx, table 2: Table S2. Pharmacokinetic parameters of NTRC 3883-0 observed in mouse, rat, monkey and dog, and predicted for humans using allometric scaling. Data in bold are measured, while data in italics are calculated or predicted (for humans). The clearance (Cl) and volume of distribution at steady state (Vss | column: Mouse

[2] = target: T1, CYP2D6 (Homo sapiens, UniProt P10635); assay: CYP2D6 inhibition (P450-Glo); format: in vitro ADME; conditions: 10 µM
T1 construct: purchased Promega V9890
Protocol: (§2) Full-length recombinant human and mouse IDO1 were expressed in Escherichia coli with a hexahistidine tag at the N-terminus, and purified by affinity chromatography to > 95% purity, as described ([8]). Human and mouse TDO containing a C-terminal hexahistidine tag were analogously expressed and purified to > 95% purity ([8]). The inhibitory activity of compounds was determined with the NFK GreenScreen assay technology under the conditions as described ([8]), except for the reaction buffer for IDO1, which was replaced by 50 mM NaH2PO4, pH 7.0, supplemented with 0.01% Tween-20 and 1% glycerol. Inhibition of the CYP3A4 and CYP2D6 enzymes was determined with the P450-Glo™ Screening System with Luciferin-IPA (Promega, #V9920 and V9890). For determination of IC50 values, the effect of inhibitors was determined in 10-point duplicate dose-response curves. Graphs were fitted to a four-parameter logistics equation in XLfit (ID Business Solutions, Ltd., Guildford, UK) from which IC50 values were calculated.

[3] = target: T2, human TDO (Homo sapiens, UniProt P48775); assay: human TDO biochemical assay (NFK GreenScreen); conditions: biochemical
T2 construct: hexahistidine (C); made in house; host or cells: Escherichia coli
Protocol: as §2

[4] = target: HEK-hTDO (Homo sapiens, UniProt P48775); assay: cell-based assay, Trp-catabolizing activity in HEK-hTDO cells
[5] = target: T3, mTDO (Mus musculus, UniProt P48776); assay: mouse TDO biochemical assay (NFK GreenScreen); conditions: biochemical; @ 31,600 nM
T3 construct: hexahistidine (C); made in house; host or cells: Escherichia coli
Protocol: as §2

[6] = in vivo pharmacokinetics, rat; set-up: species or system Wistar rats; conditions: Wistar, plasma; for clearance / Vd: intravenous; for Vd: read-out: Vss
Protocol: (§3) Pharmacokinetic properties of NTRC 3883-0 were determined in plasma following single oral (p.o.) and i.v. administration to male CD-1 mice (n = 6 per treatment group with three mice sampled per time point), Wistar rats (n = 3), cynomolgus monkey (n = 1) and Beagle dogs (n = 3). Formulations were prepared in DMSO, Kolliphor® EL, 5% D-mannitol in Elix water at a volume ratio of 1:1:8 for i.v. administration, and in 0.5% gelatin, 5% D-mannitol in Elix water for p.o. administration. Plasma samples were collected at eight to eleven time points up to 24 h after administration. Pharmacokinetic properties and required dosing in humans were predicted by allometric scaling by Karin Jorga Life Science Consulting (Basel, Switzerland) ( Figure S2 and Table S2 ).

[7] = test system: B16F10-mIDO1 subline j19 in female B6D2F1 mice; assay: B16F10-mIDO1 syngeneic mouse model, intervention study; format: in vivo
Description: For development of the mIDO1-overexpressing B16F10 mouse model, performed at Charles River Laboratories, female B6D2F1 mice were implanted subcutaneously with 1 × 10^6 parental B16F10 cells or B16F10-mIDO1 cells (subline i6 or j19) on day 0 with n = 10 mice per group. A tumor volume of 2000 mm^3 was used as the endpoint of the experiment for the individual animals. To determine the optimal inoculation cell concentration, mice were implanted with 3 × 10^5, 1 × 10^5 or 3 × 10^4 parental or mIDO1-overexpressing B16F10 cells (subline j19) with n = 5 mice per group. The same endpoint of the experiment was used as described above. […] For the intervention study, 3 x 10^5 cells of the B16F10-mIDO1 subline j19 were implanted on day 0, and treatment was started on day 3 with vehicle (DMSO, Kolliphor, 5% mannitol; […]. Four animals were excluded from analysis due to non-treatment-related deaths. Tumors and plasma were sampled 2 h post last dose.
[…]. After centrifugation, proteins were removed from the homogenized tissue supernatants and plasma samples by precipitation with methanol. The concentrations of inhibitor, Trp and Kyn were determined by LC-MS/MS.

[8] = test system: dog whole blood; assay: dog whole blood assay; format: cell-based; conditions: Canis lupus familiaris
[9] = plasma protein binding, dog; format: in vitro ADME
Protocol: as §1, with “Dog” for “Mouse”

[10] = in vivo pharmacokinetics, monkey; conditions: cynomolgus monkey, plasma; for clearance / Vd: intravenous; for Vd: read-out: Vss
Protocol: as §3

[11] = target: T4, SW48 (hTDO) (Homo sapiens, UniProt P48775); assay: cell-based assay, Trp-catabolizing activity in SW48 cells
T4 construct: host or cells: SW48 cells

[12] = target: T5, human IDO1 (Homo sapiens, UniProt P14902); assay: human IDO1 biochemical assay (NFK GreenScreen); conditions: human IDO1 biochemical assay
T5 construct: Full-length recombinant human and mouse IDO1 were expressed in Escherichia coli with a hexahistidine tag at the N-terminus; hexahistidine (N); made in house; host or cells: Escherichia coli

[13] = test system: panel of 44 pharmacologically relevant receptors, ion channels, transporters and enzymes; assay: Eurofins-CEREP selectivity panel; conditions: 10 µM
[14] = 100 mg/kg p.o. b.i.d. from day 3
[15] = 100 mg/kg p.o. b.i.d., 2 h post last dose

Chain of HEK-hTDO (P48775 whole entry): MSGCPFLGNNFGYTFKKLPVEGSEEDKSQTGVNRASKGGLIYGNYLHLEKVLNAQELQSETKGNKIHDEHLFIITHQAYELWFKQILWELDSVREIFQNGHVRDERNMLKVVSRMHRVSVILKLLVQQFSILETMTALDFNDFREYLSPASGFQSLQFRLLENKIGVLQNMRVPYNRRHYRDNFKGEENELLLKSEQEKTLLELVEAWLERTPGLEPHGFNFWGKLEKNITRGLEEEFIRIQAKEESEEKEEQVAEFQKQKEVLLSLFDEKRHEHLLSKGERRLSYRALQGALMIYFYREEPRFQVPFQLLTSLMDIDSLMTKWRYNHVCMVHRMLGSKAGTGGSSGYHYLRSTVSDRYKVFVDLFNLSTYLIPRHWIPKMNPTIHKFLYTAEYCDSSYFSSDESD
T4 sequence (P48775 whole entry): as above
T2 sequence (P48775 whole entry): as above
T5 sequence (P14902 whole entry): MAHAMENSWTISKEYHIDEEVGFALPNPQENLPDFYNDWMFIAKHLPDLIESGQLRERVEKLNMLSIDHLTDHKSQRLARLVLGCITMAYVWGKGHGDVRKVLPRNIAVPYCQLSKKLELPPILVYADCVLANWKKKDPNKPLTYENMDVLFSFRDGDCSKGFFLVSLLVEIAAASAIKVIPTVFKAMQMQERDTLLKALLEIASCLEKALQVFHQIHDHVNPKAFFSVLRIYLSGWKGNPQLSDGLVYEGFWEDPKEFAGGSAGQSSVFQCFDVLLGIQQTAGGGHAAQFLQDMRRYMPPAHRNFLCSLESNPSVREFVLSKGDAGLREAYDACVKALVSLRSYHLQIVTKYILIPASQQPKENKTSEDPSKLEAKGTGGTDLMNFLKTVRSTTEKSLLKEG
T1 sequence (P10635 whole entry): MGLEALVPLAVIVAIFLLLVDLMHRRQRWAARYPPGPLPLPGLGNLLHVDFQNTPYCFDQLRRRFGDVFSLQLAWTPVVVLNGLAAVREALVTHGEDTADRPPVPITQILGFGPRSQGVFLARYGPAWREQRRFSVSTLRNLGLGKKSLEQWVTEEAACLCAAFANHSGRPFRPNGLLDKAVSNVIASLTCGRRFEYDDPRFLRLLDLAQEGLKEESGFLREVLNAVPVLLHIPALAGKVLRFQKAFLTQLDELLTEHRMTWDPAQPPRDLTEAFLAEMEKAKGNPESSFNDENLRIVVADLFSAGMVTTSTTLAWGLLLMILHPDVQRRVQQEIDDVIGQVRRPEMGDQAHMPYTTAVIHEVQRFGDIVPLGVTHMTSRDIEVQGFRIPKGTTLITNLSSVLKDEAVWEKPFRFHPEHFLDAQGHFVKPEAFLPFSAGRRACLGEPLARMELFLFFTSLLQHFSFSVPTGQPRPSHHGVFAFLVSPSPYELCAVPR
T3 sequence (P48776 whole entry): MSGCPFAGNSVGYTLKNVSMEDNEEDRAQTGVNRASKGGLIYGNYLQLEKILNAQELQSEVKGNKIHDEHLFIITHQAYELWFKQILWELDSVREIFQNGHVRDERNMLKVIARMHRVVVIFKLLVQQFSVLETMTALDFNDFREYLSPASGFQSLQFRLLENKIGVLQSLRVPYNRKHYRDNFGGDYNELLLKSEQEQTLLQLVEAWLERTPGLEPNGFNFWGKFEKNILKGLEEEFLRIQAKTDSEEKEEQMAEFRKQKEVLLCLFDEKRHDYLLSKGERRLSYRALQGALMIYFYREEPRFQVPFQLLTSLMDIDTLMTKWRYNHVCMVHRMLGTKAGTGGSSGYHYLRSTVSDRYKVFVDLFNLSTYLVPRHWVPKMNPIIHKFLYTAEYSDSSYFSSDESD

With `O=C1CN(C(=O)c2c(F)cccc2F)[C@H](c2cccc(Br)c2)N1O` [NTRC 3883-0] the fraction unbound [1] was 0.46, the “inhibition of CYP2D6 activity” value [2] was “did not inhibit” and the inhibition at 31.6 µM ([3]; @ 31,600 nM, read-out: inhibition hTDO) was under 20%. The “activity on human TDO (in words)” value ([3]; highest tested concentration 31.6 µM) was “inactive”, the “effect on Trp-catabolizing activity in HEK-hTDO cells (in words)” value [4] was “no effect” and the inhibition at 31.6 µM ([4]; read-out: inhibition HEK-hTDO) was under 20%. The inhibition at 31.6 µM [5] was under 20%, the half-life [6] was 3.3 h and the clearance [6] was 19.1 mL/min/kg. The clearance ([6]; body weight 0.29 kg) was 5.52 mL/min, the Vd ([6]; body weight 0.29 kg) was 0.417 L and the Vd [6] was 1.43 L/kg. The bioavailability ([6]; po, p.o. versus i.v., read-out: Bioavailability (F)) was 91%, the “times lower intratumoral levels of Kyn compared to epacadostat” value ([7]; 100 mg/kg p.o. b.i.d.) was 3.6 times and the “tumor growth corrected for the variation in time until tumor establishment” value [7, 14] was “delay in tumor growth”. For the same molecule, the “tumor growth in comparison to vehicle-treated animals” value [7, 14] was “no effect”, the “times lower inhibitor level in plasma compared to epacadostat” value [7, 15] was 1.8 times and the “times lower inhibitor level in the tumors compared to epacadostat” value [7, 15] was 2.2 times. The “intratumoral Trp levels” value ([7]; 100 mg/kg p.o. b.i.d., LC-MS/MS) was “slightly more efficient in increasing Trp”, the IC90 [8] was 1000 nM and the fraction unbound [9] was 0.21. The half-life [10] was 2.4 h, the clearance [10] was 37 mL/min/kg and the clearance ([10]; monkey, body weight 3.0 kg) was 111 mL/min. For the same molecule, the Vd ([10]; monkey, body weight 3.0 kg) was 6.74 L, the Vd [10] was 2.25 L/kg and the bioavailability ([10]; po, monkey, p.o. versus i.v., read-out: Bioavailability (F)) was 49%. The inhibition at 31.6 µM ([11]; SW48, @ 31,600 nM) was under 20%, the “effect on Trp-catabolizing activity in SW48 (in words)” value ([11]; constitutively expresses TDO) was “no effect” and the IC50 [12] was 123 nM. For the same molecule, the “cross-reactivities in panel of 44 targets” value [13] was “no cross-reactivities”.
